Laboratory results published in US7022697B2, “4-(Oxadiazol-3-yl)-1,4-diazabicyclo[3.2.2]-nonane derivatives, preparation and therapeutic use thereof” (Sanofi-aventis, priority 2001, dated 2006).
Counter-ions that a name gives are not always drawn.

| Compound | melting point [°C] |
| --- | --- |
| c1cc(-c2nc(N3CCN4CCC3CC4)no2)ccn1 (as salt: HBr) | 269 to 272 |
| C1CNC(c2nc(N3CCN4CCC3CC4)no2)CN1 (stereo not drawn) (as salt: HBr) | 247 to 248 |
| c1ccc2c(-c3nc(N4CCN5CCC4CC5)no3)cccc2c1 (as salt: HBr) | 256 to 258 |
| c1coc(-c2nc(N3CCN4CCC3CC4)no2)c1 (as salt: HBr) | 249 to 251 |
| c1ccc2sc(-c3nc(N4CCN5CCC4CC5)no3)cc2c1 (as salt: HBr) | 258 to 260 |
| c1cncc(-c2nc(N3CCN4CCC3CC4)no2)c1 (as salt: HBr) | 260 to 264 |
